Results on 2 molecules are retold here after patent publication US20250108099A1, “Ovomucoid for use in a method of managing blood coagulation” (Solution Shop AG, priority 2022, published 2025).

Format in all cases: biochemical
Test [1] concerns Thrombin generation. The experiment in a line: Thrombin generation (calibrated automated thrombogram) in defibrinated normal pooled plasma, absence of fibrinogen. Particulars: 0.5 pM TF, ovomucoid/Trasylol 50-350 U/ml, Cyklokapron 1-8 mg/ml. The source says:
(§1) This pilot bioequivalence study aims at investigating the effect of duck egg ovomucoid on the clotting system and assessed its activity against the known anti-thrombolytic agents (Trasylol® “aprotinin” and Cyklokapron” “transamic acid”) by means of the calibrated automated thrombogram (CAT). The CAT method is a functional sensitive assay which detects any hyper- or hypocoagulability in the clotting system, disorders in platelet function and follows up therapy with anti-haemophilia supplements, anticoagulants and antithrombotics.
In a fibrinolytic patient fibrin is unstable.
(§2) An optimal concentration of procoagulant phospholipids was used (4 μM). Two concentrations of tissue factor (TF) were added, 5 pM to study the classical extrinsic pathway and 0.5 pM to explore a pathway in which also the antihaemophilic factors (Factor VIII and IX) play a role.

The test system of test [2] is Thrombin generation. The experiment in a line: Thrombin generation (calibrated automated thrombogram) in normal non-defibrinated plasma, presence of endogenous fibrinogen. Particulars: for effect on extrinsic-thrombin generation: extrinsic (5 pM TF), ovomucoid/Trasylol 50-350 U/ml, Cyklokapron 1-8 mg; for effect on thrombin generation / coagulation system: low TF concentration (0.5 pM).
Excerpt: as §1, §2
Normally fibrin (-ogen) is present during thrombin generation, therefore the above experiments were carried out in normal non-defibrinated plasma. Extrinsic-thrombin generation was conducted in normal plasma spiked with increasing amounts of duck egg ovomucoid (50-350 U/ml) and compared to Trasylol (50-350 U/ml) and to Cyklokapron (1-8 mg).

Another test addresses T1, plasmin (Homo sapiens, UniProt P00747).
T1 construct: a buffered plasmin solution was used
The experiment in a line: Plasmin inhibition in buffered plasmin solution with chromogenic substrate S-2251 (Example 2). Particulars: 37° C. How it is done: In order to analyse plasmin inhibition a buffered plasmin solution was used. The solution was incubated with duck egg ovomucoid or cyklocapron as a control. The solutions were incubated at 37° C. and the chromogenic plasmin substrate S-2251 was added and plasmin activity was measured.

T1 sequence (P00747 97-580 limits assumed): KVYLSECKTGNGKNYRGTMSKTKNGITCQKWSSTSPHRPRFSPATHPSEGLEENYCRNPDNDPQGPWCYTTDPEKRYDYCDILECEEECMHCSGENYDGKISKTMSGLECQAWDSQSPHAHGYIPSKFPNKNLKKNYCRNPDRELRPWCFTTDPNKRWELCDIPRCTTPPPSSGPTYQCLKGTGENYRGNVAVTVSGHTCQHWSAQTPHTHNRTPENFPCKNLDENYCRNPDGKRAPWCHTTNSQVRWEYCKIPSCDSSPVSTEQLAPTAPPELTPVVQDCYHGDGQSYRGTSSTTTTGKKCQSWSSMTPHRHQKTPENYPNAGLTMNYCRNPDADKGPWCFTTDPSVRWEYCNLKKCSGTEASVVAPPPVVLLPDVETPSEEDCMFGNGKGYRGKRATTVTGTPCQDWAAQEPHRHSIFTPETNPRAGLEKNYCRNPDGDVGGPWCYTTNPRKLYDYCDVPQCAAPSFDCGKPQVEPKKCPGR
T1 sequence (P00747 581-810 limits assumed): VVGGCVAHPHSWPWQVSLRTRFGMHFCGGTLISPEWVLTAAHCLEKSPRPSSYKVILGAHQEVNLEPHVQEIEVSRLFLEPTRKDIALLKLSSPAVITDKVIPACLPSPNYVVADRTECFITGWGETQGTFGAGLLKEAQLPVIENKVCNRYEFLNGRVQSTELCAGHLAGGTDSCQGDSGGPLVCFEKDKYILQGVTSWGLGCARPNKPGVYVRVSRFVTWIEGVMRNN

Consider aprotinin [Trasylol], for which the “effect on thrombin generation” value in the test on Thrombin generation [1] is recorded as “inhibited thrombin generation dose-dependently”. For the same molecule, in the test with Thrombin generation [2], the “effect on extrinsic-thrombin generation” value is on record as “hardly any activity” and the “effect on thrombin generation / coagulation system” value was “dose-dependently anticoagulant”.
Regarding `NC[C@H]1CC[C@H](C(=O)O)CC1` [Cyklokapron, transamic acid], the “effect on thrombin generation” value with Thrombin generation [1] was “increased the thrombin generation in a dose-dependent manner”. In addition, in the test on Thrombin generation [2], the “effect on extrinsic-thrombin generation” value was “hardly any activity” and the “effect on thrombin generation / coagulation system” value is given as “procoagulant”. Further, the “inhibitory effect on plasmin” value against plasmin is listed as “inhibitory effect on plasmin”.
